Data on 7 compounds can be found in patent US5416191A, “Bradykinin antagonists” (Cortech, Inc., priority 1993, dated 1995).

In assay [1] the target is T1, bradykinin receptor of the B2 class (rat uterus) (Rattus norvegicus, UniProt P25023).
T1 construct: concentration effect curves to bradykinin (BK) on rat uterus in vitro; from tissue; host or cells: rat uterus
T1 sequence (P25023 1-396): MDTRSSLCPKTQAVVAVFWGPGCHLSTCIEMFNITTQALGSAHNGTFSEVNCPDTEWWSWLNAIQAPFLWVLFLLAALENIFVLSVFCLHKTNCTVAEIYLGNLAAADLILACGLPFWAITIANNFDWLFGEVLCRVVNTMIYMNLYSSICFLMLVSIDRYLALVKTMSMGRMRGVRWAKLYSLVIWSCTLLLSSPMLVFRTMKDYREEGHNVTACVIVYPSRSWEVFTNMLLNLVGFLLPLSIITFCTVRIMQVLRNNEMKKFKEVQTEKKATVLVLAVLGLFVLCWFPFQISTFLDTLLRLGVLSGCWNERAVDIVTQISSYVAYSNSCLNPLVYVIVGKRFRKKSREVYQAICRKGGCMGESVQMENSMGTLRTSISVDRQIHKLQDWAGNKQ
Kind of assay: Rat uterus (RU) in vitro, antagonism of bradykinin. The gist of the method: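 Isolated rat uterus; bradykinin antagonism expressed as pA2, the negative log molar antagonist concentration that halves agonist potency. After the highest antagonist concentration, tissues were washed extensively and percent recovery was recorded.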

In assay [2] the target is T2, bradykinin receptor of the B2 class (guinea-pig ileum) (Cavia porcellus, UniProt O70526).
T2 sequence (O70526 1-372): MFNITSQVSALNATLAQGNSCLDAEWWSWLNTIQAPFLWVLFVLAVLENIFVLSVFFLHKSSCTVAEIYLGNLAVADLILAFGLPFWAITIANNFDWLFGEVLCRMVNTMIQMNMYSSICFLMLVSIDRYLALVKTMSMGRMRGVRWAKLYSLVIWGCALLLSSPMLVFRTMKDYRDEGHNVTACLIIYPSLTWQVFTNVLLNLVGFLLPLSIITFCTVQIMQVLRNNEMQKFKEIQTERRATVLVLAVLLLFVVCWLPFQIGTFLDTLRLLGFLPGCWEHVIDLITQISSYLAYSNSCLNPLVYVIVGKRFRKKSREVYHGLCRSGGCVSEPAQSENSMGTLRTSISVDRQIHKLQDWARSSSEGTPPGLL
As to conditions: Table B; Cys position scan, monomers and BMH dimers.

The target in assay [3] is T2, bradykinin receptor of the B2 class (guinea-pig ileum).
The mark [4] stands for this setting: Table C, rat uterus, read-out: pA2 DIMER (converted).
Setting [5] is: Table E, read-out: RAT UTERUS pA2 (converted).

Read-outs that look alike come from different tables or passages of the source. Peptide text beside a SMILES is read from it.

As to `CC(C)C[C@H](NC(=O)[C@@H](Cc1ccccc1)NC(=O)[C@H](CO)NC(=O)[C@H](Cc1ccccc1)NC(=O)[C@H](CS)NC(=O)[C@@H]1C[C@@H](O)CN1C(=O)[C@@H]1CCCN1C(=O)[C@H](CCCNC(=N)N)NC(=O)[C@H](N)CCCNC(=N)N)C(=O)N[C@@H](CCCNC(=N)N)C(=O)O` [CP-0136] (HELM PEPTIDE1{[dR].R.P.[Hyp].C.F.S.[dF].L.R}$$$$V2.0), in assay [1] (Table C, rat uterus, P.A. = Partial Agonist), the “pA2 MONOMER” value is “Inactive”. Besides, the “pA2 GUINEA PIG ILEUM” value in assay [2] is “Inactive”.
As for `CC(C)C[C@H](NC(=O)[C@@H](Cc1ccccc1)NC(=O)[C@H](CO)NC(=O)[C@H](Cc1ccccc1)NC(=O)[C@H](CSC1CC(=O)N(CCCCCCN2C(=O)CC(SC[C@H](NC(=O)[C@@H]3C[C@@H](O)CN3C(=O)[C@@H]3CCCN3C(=O)[C@H](CCCNC(=N)N)NC(=O)[C@H](N)CCCNC(=N)N)C(=O)N[C@@H](Cc3ccccc3)C(=O)N[C@@H](CO)C(=O)N[C@H](Cc3ccccc3)C(=O)N[C@@H](CC(C)C)C(=O)N[C@@H](CCCNC(=N)N)C(=O)O)C2=O)C1=O)NC(=O)[C@@H]1C[C@@H](O)CN1C(=O)[C@@H]1CCCN1C(=O)[C@H](CCCNC(=N)N)NC(=O)[C@H](N)CCCNC(=N)N)C(=O)N[C@@H](CCCNC(=N)N)C(=O)O` (stereo partly shown) [CP-0137] (HELM PEPTIDE1{[dR].R.P.[Hyp].C.F.S.[dF].L.R}|PEPTIDE2{[dR].R.P.[Hyp].C.F.S.[dF].L.R}|CHEM1{[O=C1CC([*:1])C(=O)N1CCCCCCN1C(=O)CC([*:2])C1=O]}$PEPTIDE1,CHEM1,5:R3-1:R1|PEPTIDE2,CHEM1,5:R3-1:R2$$$V2.0), the “pA2 DIMER” value in assay [1] (Table C, rat uterus) was “Inactive”. Moreover, in assay [2], the “pA2 GUINEA PIG ILEUM” value is on record as “Inactive”.
Regarding `CC(C)C[C@H](NC(=O)[C@@H](Cc1ccccc1)NC(=O)[C@H](CO)NC(=O)[C@H](Cc1ccccc1)NC(=O)CNC(=O)[C@H](CSC1CC(=O)N(CCCCCCN2C(=O)CC(SC[C@H](NC(=O)[C@@H]3CCCN3C(=O)[C@H](CCCNC(=N)N)NC(=O)[C@H](N)CCCNC(=N)N)C(=O)NCC(=O)N[C@@H](Cc3ccccc3)C(=O)N[C@@H](CO)C(=O)N[C@H](Cc3ccccc3)C(=O)N[C@@H](CC(C)C)C(=O)N[C@@H](CCCNC(=N)N)C(=O)O)C2=O)C1=O)NC(=O)[C@@H]1CCCN1C(=O)[C@H](CCCNC(=N)N)NC(=O)[C@H](N)CCCNC(=N)N)C(=O)N[C@@H](CCCNC(=N)N)C(=O)O` (stereo partly shown) [CP-0155] (HELM PEPTIDE1{[dR].R.P.C.G.F.S.[dF].L.R}|PEPTIDE2{[dR].R.P.C.G.F.S.[dF].L.R}|CHEM1{[O=C1CC([*:1])C(=O)N1CCCCCCN1C(=O)CC([*:2])C1=O]}$PEPTIDE1,CHEM1,4:R3-1:R1|PEPTIDE2,CHEM1,4:R3-1:R2$$$V2.0), the “% REC DIMER” value in assay [1] (Table C, rat uterus) is 100%. Besides, the Kb in assay [1] (setting [4]) is 0.631 µM; in assay [3], around 0.0794 µM.
The corresponding values for `CC(C)C[C@H](NC(=O)[C@@H](Cc1ccccc1)NC(=O)[C@H](CO)NC(=O)[C@H](CSC1CC(=O)N(CCCCCCN2C(=O)CC(SC[C@H](NC(=O)CNC(=O)[C@@H]3C[C@@H](O)CN3C(=O)[C@@H]3CCCN3C(=O)[C@H](CCCNC(=N)N)NC(=O)[C@H](N)CCCNC(=N)N)C(=O)N[C@@H](CO)C(=O)N[C@H](Cc3ccccc3)C(=O)N[C@@H](CC(C)C)C(=O)N[C@@H](CCCNC(=N)N)C(=O)O)C2=O)C1=O)NC(=O)CNC(=O)[C@@H]1C[C@@H](O)CN1C(=O)[C@@H]1CCCN1C(=O)[C@H](CCCNC(=N)N)NC(=O)[C@H](N)CCCNC(=N)N)C(=O)N[C@@H](CCCNC(=N)N)C(=O)O` (stereo partly shown) [CP-0156] (HELM PEPTIDE1{[dR].R.P.[Hyp].G.C.S.[dF].L.R}|PEPTIDE2{[dR].R.P.[Hyp].G.C.S.[dF].L.R}|CHEM1{[O=C1CC([*:1])C(=O)N1CCCCCCN1C(=O)CC([*:2])C1=O]}$PEPTIDE1,CHEM1,6:R3-1:R1|PEPTIDE2,CHEM1,6:R3-1:R2$$$V2.0) are 75%, 0.00794 µM and around 0.0126 µM.
For `CC(C)C[C@H](NC(=O)[C@@H](Cc1ccccc1)NC(=O)[C@H](CO)NC(=O)[C@H](Cc1ccccc1)NC(=O)CNC(=O)[C@@H]1C[C@@H](O)CN1C(=O)[C@@H]1CCCN1C(=O)[C@H](CCCNC(=N)N)NC(=O)[C@H](N)CSC1CC(=O)N(CCCCCCN2C(=O)CC(SC[C@@H](N)C(=O)N[C@@H](CCCNC(=N)N)C(=O)N3CCC[C@H]3C(=O)N3C[C@H](O)C[C@H]3C(=O)NCC(=O)N[C@@H](Cc3ccccc3)C(=O)N[C@@H](CO)C(=O)N[C@H](Cc3ccccc3)C(=O)N[C@@H](CC(C)C)C(=O)N[C@@H](CCCNC(=N)N)C(=O)O)C2=O)C1=O)C(=O)N[C@@H](CCCNC(=N)N)C(=O)O` (stereo partly shown) [CP-0161] (HELM PEPTIDE1{[dC].R.P.[Hyp].G.F.S.[dF].L.R}|PEPTIDE2{[dC].R.P.[Hyp].G.F.S.[dF].L.R}|CHEM1{[O=C1CC([*:1])C(=O)N1CCCCCCN1C(=O)CC([*:2])C1=O]}$PEPTIDE1,CHEM1,1:R3-1:R1|PEPTIDE2,CHEM1,1:R3-1:R2$$$V2.0), the “% REC DIMER” value in assay [1] (Table C, rat uterus) came out at 100%. In addition, the Kb in assay [1] (setting [4]) is 0.316 µM; in assay [3] it was around 0.501 µM.
For the compound `CC(C)C[C@H](NC(=O)[C@@H](Cc1ccccc1)NC(=O)[C@H](CSC1CC(=O)N(c2ccc(N3C(=O)CC(SC[C@H](NC(=O)[C@H](Cc4ccccc4)NC(=O)CNC(=O)[C@@H]4C[C@@H](O)CN4C(=O)[C@@H]4CCCN4C(=O)[C@H](CCCNC(=N)N)NC(=O)[C@H](N)CCCNC(=N)N)C(=O)N[C@H](Cc4ccccc4)C(=O)N[C@@H](CC(C)C)C(=O)N[C@@H](CCCNC(=N)N)C(=O)O)C3=O)cc2)C1=O)NC(=O)[C@H](Cc1ccccc1)NC(=O)CNC(=O)[C@@H]1C[C@@H](O)CN1C(=O)[C@@H]1CCCN1C(=O)[C@H](CCCNC(=N)N)NC(=O)[C@H](N)CCCNC(=N)N)C(=O)N[C@@H](CCCNC(=N)N)C(=O)O` (stereo partly shown) [CP-0170] (HELM PEPTIDE1{[dR].R.P.[Hyp].G.F.C.[dF].L.R}|PEPTIDE2{[dR].R.P.[Hyp].G.F.C.[dF].L.R}|CHEM1{[O=C1CC([*:1])C(=O)N1c1ccc(N2C(=O)CC([*:2])C2=O)cc1]}$PEPTIDE1,CHEM1,7:R3-1:R1|PEPTIDE2,CHEM1,7:R3-1:R2$$$V2.0), the “RAT UTERUS % RECOVERED” value in assay [1] (Table E) came out at 100%. The Kb in assay [1] (setting [5]) was 0.1 µM; in assay [3], around 0.501 µM.
Take `CC(C)C[C@H](NC(=O)[C@@H](Cc1ccccc1)NC(=O)[C@H](CSC1CC(=O)N(CCN(CCN2C(=O)CC(SC[C@H](NC(=O)[C@H](Cc3ccccc3)NC(=O)CNC(=O)[C@@H]3C[C@@H](O)CN3C(=O)[C@@H]3CCCN3C(=O)[C@H](CCCNC(=N)N)NC(=O)[C@H](N)CCCNC(=N)N)C(=O)N[C@H](Cc3ccccc3)C(=O)N[C@@H](CC(C)C)C(=O)N[C@@H](CCCNC(=N)N)C(=O)O)C2=O)CCN2C(=O)CC(SC[C@H](NC(=O)[C@H](Cc3ccccc3)NC(=O)CNC(=O)[C@@H]3C[C@@H](O)CN3C(=O)[C@@H]3CCCN3C(=O)[C@H](CCCNC(=N)N)NC(=O)[C@H](N)CCCNC(=N)N)C(=O)N[C@H](Cc3ccccc3)C(=O)N[C@@H](CC(C)C)C(=O)N[C@@H](CCCNC(=N)N)C(=O)O)C2=O)C1=O)NC(=O)[C@H](Cc1ccccc1)NC(=O)CNC(=O)[C@@H]1C[C@@H](O)CN1C(=O)[C@@H]1CCCN1C(=O)[C@H](CCCNC(=N)N)NC(=O)[C@H](N)CCCNC(=N)N)C(=O)N[C@@H](CCCNC(=N)N)C(=O)O` (stereo partly shown) [CP-0176] (HELM PEPTIDE1{[dR].R.P.[Hyp].G.F.C.[dF].L.R}|PEPTIDE2{[dR].R.P.[Hyp].G.F.C.[dF].L.R}|PEPTIDE3{[dR].R.P.[Hyp].G.F.C.[dF].L.R}|CHEM1{[O=C1CC([*:1])C(=O)N1CCN(CCN1C(=O)CC([*:2])C1=O)CCN1C(=O)CC([*:3])C1=O]}$PEPTIDE1,CHEM1,7:R3-1:R1|PEPTIDE2,CHEM1,7:R3-1:R2|PEPTIDE3,CHEM1,7:R3-1:R3$$$V2.0): in assay [1] (Table E), the “RAT UTERUS % RECOVERED” value was 50%. The Kb was 0.00251 µM in assay [1] (setting [5]) and around 0.1 µM in assay [3].
